Measured values published in patent publication US20170281507A1, “Peptides and Their Use in the Treatment of Skin” (AVON PRODUCTS, INC., priority 2014, published 2017).
Peptide text beside a SMILES is read from it.

System: Human dermal fibroblast cells
Test: Hyaluronic acid (HA) production in human dermal fibroblast cells, HA ELISA of the media
Type: cell-based
Settings: percent change of HA production relative to vehicle control, peptide concentration 0.001%, 48h treatment in DMEM media without FBS, secreted HA in media
Procedure: Human dermal fibroblast cells were grown in a 96 well plate in DMEM media (available from Corning, N.Y.) supplemented with 10% Fetal Bovine Serum (FBS) and L-glutamine (0.07×10^5 cells/plate). After reaching about 75% confluence, cells were transferred into DMEM media without FBS and incubated for 4-6 hours. Next, cells were treated with peptide of Formula I at 0.00001%, 0.0001%, 0.001% final concentration in DMEM media without FBS for 48h. After treatment the media were collected, and cell viability was measured using MTT. Amount of secreted Hyaluronic Acid (HA) was tested in the media using HA Elisa kit (available from Corgenix, Broomfield, Colo.).
Results are summarized in Table 1 below as percent change of HA production relative to vehicle control: […]

## CC(N)C(=O)NC(CCC(=O)O)C(=O)NC(CS)C(=O)NC(CCCCN)C(=O)O (stereo not drawn) [AECK (SEQ ID NO: 1), Ala-Glu-Cys-Lys] (H-AECK-OH; configuration not given here)
  Increase in HA Production: +90-150%
Listed as peptide of Formula I
  Increase in HA Production: 90-150%
